Reference: patent US20210283220A1, “ANTIBODY MOLECULE-DRUG CONJUGATES AND USES THEREOF” (priority 2017, published 2021)
No end group written: not given here.

Legend:
E. coli = experiment: Minimal inhibitory concentration (MIC) assay, broth microdilution; type: cell-based, Escherichia coli; conditions: for MIC Eco 25922: E. coli 25922; for MIC Eco 43745: E. coli 43745, in the presence of PBS
P. aeruginosa [1] = experiment: as above; type: cell-based, Pseudomonas aeruginosa
P. aeruginosa 27853 = experiment: MIC / killing activity in the presence of human serum (hsMIC, 50% human serum); type: cell-based, Pseudomonas aeruginosa; conditions: for 50% hsMIC Pae 27853: P. aeruginosa 27853, 50% human serum; for hsMIC/MIC: ratio
Description: In an embodiment, the MIC is determined in the presence of phosphate-buffered saline (PBS). In an embodiment, the MIC or hsMIC is determined on per ADC basis. In an embodiment, the MIC or hsMIC is determined on per payload or antimicrobial peptide basis.

P. aeruginosa ATCC 27853 = experiment: Resistance rate determination (standard and micro-dotting protocols); type: cell-based, Pseudomonas aeruginosa
Text: . These rates are considered favorable when compared to published rates in the 10^−5 to 10^−8 range. […]

K. pneumoniae = experiment: Minimal inhibitory concentration (MIC) assay, broth microdilution; type: cell-based, Klebsiella pneumoniae; conditions: K. pneumoniae 700603; in the presence of PBS
Description: (§1) Daughter plates were prepared as follows.
(§2) Cultured media were prepared as follows.

S. aureus = experiment: as above; type: cell-based, Staphylococcus aureus; conditions: S. aureus 29213; in the presence of PBS
Description: as §1, §2

P. aeruginosa [2] = experiment: Microbial killing assay (percent killing, CFU); type: cell-based, Pseudomonas aeruginosa; conditions: for 50% Killing Activity, BAA-2108: MDR P. aeruginosa strain BAA-2108; for 50% Killing Activity, BAA-2110: MDR P. aeruginosa strain BAA-2110; for 50% Killing Activity, BAA-2114: MDR P. aeruginosa strain BAA-2114; for 50% Killing Activity, Pae 27853: P. aeruginosa strain 27853, Table 10
Description: Bactericidal assay: Direct killing activity of the ADC can be measured against two well described laboratory strains of P. aeruginosa (PA14 and PA01) and no less than three clinical strains of P. aeruginosa, including MDR and Pan-resistant strains. These assays are conducted in the absence of complement or effector cells. Activity in this assay can provide insight on the inherent killing activity of the ADC.
The microbial killing assay was performed as follows. Bacterial cells were grown aerobically overnight on agar plates at 37° C. Overnight plates were used to seed 30 ml cultures of growth media in 250 ml vented flasks. Cultures were grown aerobically at 37° C., shaking at 150 rpm. Growth was monitored at A600 nM and bacterial cells were harvested at mid-log growth. Ten ml of culture was pelleted at 4000×G for 10 minutes and washed one time with PBS plus 1% BSA before re-suspending in 2 ml PBS+BSA. […] Cultures were diluted to 1×10^4 cells/ml in PBS plus BSA. Test articles were diluted in PBS+1% BSA and 50 μl per concentration tested was loaded into a 96 well polypropylene microtiter plate. Fifty μl of diluted culture was added to all test wells as well as no compound control wells. Plates were shaken and incubated at 37° C., 90 minutes, static. Ten μl from each assay well was plated onto agar plates and incubated at 37° C. overnight. Percent killing was determined by the CFU for test wells compared to the CFU for no compound control wells.

[3] = P. aeruginosa 27853, in the presence of PBS
[4] = P. aeruginosa 39324, in the presence of PBS

(MAL)-(EG3)-GIGKFLKKAKKFGKAFVKILKK [peptide 21]
MIC Eco 25922 (E. coli): 8 µg/mL

Ceftazadime [reference compound]
MIC Pae 27853 (P. aeruginosa [1]; [3]): 1 µg/mL
MIC Pae 39324 (P. aeruginosa [1]; [4]): 1 µg/mL
MIC Pae 27853 (P. aeruginosa [1]; strain Pae27853): 1 µg/mL
MIC Pae 39324 (P. aeruginosa [1]; strain Pae39324): 2 µg/mL
50% hsMIC Pae 27853 (P. aeruginosa 27853): 1 µg/mL
hsMIC/MIC (P. aeruginosa 27853): 1

Colistin [reference compound]
resistance rate, Micro-dotting (P. aeruginosa ATCC 27853; 2x MIC): 1.08E−07
resistance rate, Standard (P. aeruginosa ATCC 27853; 2x MIC): 6.50E−08
resistance rate, Micro-dotting (P. aeruginosa ATCC 27853; 4x MIC): 2.10E−09
resistance rate, Standard (P. aeruginosa ATCC 27853; 4x MIC): 1.60E−09
resistance rate, Micro-dotting (P. aeruginosa ATCC 27853; 8x MIC): <1.1E−09
resistance rate, Standard (P. aeruginosa ATCC 27853; 8x MIC): <1.6E−09

GAFGNFLKGVAKKAGLKILSIAQCKLFGTC [peptide 70]
MIC Eco 25922 (E. coli): 4 µg/mL
MIC Pae 27853 (P. aeruginosa [1]; P. aeruginosa 27853): 8 µg/mL

GGG-D-Dab-cyclic(L-Dab-L-Dab-D-Leu-L-Phe-L-Dab-L-Dab-L-Leu) [GGG-Octapeptin]
MIC Kpn 700603 (K. pneumoniae): >128 µg/mL
MIC Pae 27853 (P. aeruginosa [1]; [3]): 2 µg/mL
MIC Pae 39324 (P. aeruginosa [1]; [4]): 2 µg/mL
50% hsMIC Pae 27853 (P. aeruginosa 27853): 2 µg/mL
hsMIC/MIC (P. aeruginosa 27853): 1
MIC Sau 29213 (S. aureus): >128 µg/mL

GGGGIGKFLKKAKKFGKAFVKILKK [Peptide P261]
MIC Eco 43745 (E. coli): 4 µg/mL

GGGGLRKRLRKFRNKIKEKLKKIGQKIQGLLPKLA [Peptide P271]
MIC Eco 43745 (E. coli): 4 µg/mL

GGGGLRRLGRKIAHGIKKYGPTILRIIRIAG [Peptide P293]
MIC Eco 43745 (E. coli): 4 µg/mL
MIC Kpn 700603 (K. pneumoniae): 4 µg/mL
MIC Pae 27853 (P. aeruginosa [1]; [3]): 8 µg/mL
MIC Pae 39324 (P. aeruginosa [1]; [4]): 2 µg/mL

GGGGRFKRFRKKFKKLFKKLSPVIPLLHLG [Peptide P295]
50% Killing Activity, BAA-2108 (P. aeruginosa [2]): 0.6 µg/mL
50% Killing Activity, BAA-2110 (P. aeruginosa [2]): 0.6 µg/mL
50% Killing Activity, BAA-2114 (P. aeruginosa [2]): 0.14 µg/mL
50% Killing Activity, Pae 27853 (P. aeruginosa [2]): 0.3 µg/mL
MIC Pae 27853 (P. aeruginosa [1]; [3]): 4 µg/mL
MIC Pae 39324 (P. aeruginosa [1]; [4]): 4 µg/mL
MIC (P. aeruginosa ATCC 27853) (P. aeruginosa [1]): 1 to 4 µg/mL
50% hsMIC Pae 27853 (P. aeruginosa 27853): 2 µg/mL
hsMIC/MIC (P. aeruginosa 27853): 0.5

GGGGSGGGGSGIGKFLKKAKKFGKAFVKILKK [peptide 23]
MIC Eco 25922 (E. coli): 8 µg/mL

GGGKFFRKLKKSVKKRAKEFFKKPRVIGVSIPF [Peptide P297]
MIC Eco 43745 (E. coli): 2 µg/mL
50% Killing Activity, BAA-2108 (P. aeruginosa [2]): 0.28 µg/mL
50% Killing Activity, BAA-2110 (P. aeruginosa [2]): 0.28 µg/mL
50% Killing Activity, BAA-2114 (P. aeruginosa [2]): 0.07 µg/mL
50% Killing Activity, Pae 27853 (P. aeruginosa [2]): 0.04 µg/mL
MIC Pae 27853 (P. aeruginosa [1]; [3]): 4 µg/mL
MIC Pae 39324 (P. aeruginosa [1]; [4]): 2 µg/mL
MIC (P. aeruginosa ATCC 27853) (P. aeruginosa [1]): 1 to 4 µg/mL
50% hsMIC Pae 27853 (P. aeruginosa 27853): 8 µg/mL
hsMIC/MIC (P. aeruginosa 27853): 2

GGGKRFKKFFKKLKNSVKKRAKKFFKKPRVIGVSIPF [Peptide P296]
MIC Eco 43745 (E. coli): 4 µg/mL
MIC Pae 27853 (P. aeruginosa [1]; [3]): 4 µg/mL
MIC Pae 39324 (P. aeruginosa [1]; [4]): 2 µg/mL
50% hsMIC Pae 27853 (P. aeruginosa 27853): 1 µg/mL
hsMIC/MIC (P. aeruginosa 27853): 0.25

GGGLLGDFFRKSKEKIGKEFKRIVQRIKDFLRNLVPRTES [Peptide P265]
MIC Eco 43745 (E. coli): 8 µg/mL
MIC Kpn 700603 (K. pneumoniae): >128 µg/mL
50% hsMIC Pae 27853 (P. aeruginosa 27853): >128 µg/mL
hsMIC/MIC (P. aeruginosa 27853): >4

GGGRGLRRLGRKIAHGVKKYGPTVLRIIKKYG [Peptide P294]
MIC Eco 43745 (E. coli): 2 µg/mL
MIC Kpn 700603 (K. pneumoniae): 8 µg/mL

GIGKFLKKAKKFGKAFVKILKK [peptide 109]
MIC Eco 25922 (E. coli): 4 µg/mL
MIC Pae 27853 (P. aeruginosa [1]; P. aeruginosa 27853): 8 µg/mL

GIGKFLKKAKKFGKAFVKILKK-NH2 [Peptide P32]
resistance rate, Micro-dotting (P. aeruginosa ATCC 27853; 2x MIC): 1.08E−07
resistance rate, Micro-dotting (P. aeruginosa ATCC 27853; 4x MIC): 9.59E−08
resistance rate, Standard (P. aeruginosa ATCC 27853; 4x MIC): <1.6E−09
growth of resistant colonies, standard protocol (P. aeruginosa ATCC 27853; 4×MIC and above): no growth was observed
resistance rate, Micro-dotting (P. aeruginosa ATCC 27853; 8x MIC): 8.02E−09
resistance rate, Standard (P. aeruginosa ATCC 27853; 8x MIC): <1.6E−09

GIGKFLKKAKKFGKAFVKILKKGGGGSGGGGS [peptide 24]
MIC Pae 27853 (P. aeruginosa [1]; P. aeruginosa 27853): 8 µg/mL

GLRKRLRKFRNKIKEKLKKIGQKIQGLLPKLA [Peptide 33]
MIC Eco 25922 (E. coli): 8 µg/mL
MIC Pae 27853 (P. aeruginosa [1]; P. aeruginosa 27853): 8 µg/mL

RLGNFFRKAKKKIGRGLKKIGQKIKDFLGNLVPRTES [peptide 128]
MIC Pae 27853 (P. aeruginosa [1]; P. aeruginosa 27853): 8 µg/mL
